Experimental data: patent US20230381142A1, “ANTILEISHMANIAL COMPOUNDS, COMPOSITIONS AND USE THEREOF” (TRUSTEES OF BOSTON UNIVERSITY, priority 2022, published 2023)
Where two headings read alike, the source gives them in different places.

What was measured:
[1] = test system: L. major promastigotes (strain LV39); assay: Promastigote assay, CellTiter-Glo (Assay Conditions F); format: cell-based; settings: Leishmania major; read-out: Extracellular promastigote EC50
Method: (§1) Assay Conditions F: Leishmania promastigotes (L. major: strain LV39; L. donovani, strain 1S/Cl2D) were maintained as previously described in PloS Negl Trop Dis (2015) 9(3):e0003588 and Pathogens (2021) 10(5):593) at 28° C. in M199 media supplemented with glutamine, adenosine, folic acid, hemin, HEPES, 10% Fetal Bovine Serum (Sigma-Aldrich, cat. no. F2442) and 1% Penicillin-Streptomycin (Gibco, cat. no. 15140122). For the promastigote assay, we followed the method previously described in PloS Negl Trop Dis (2011) 5(7):e1253. Briefly, promastigotes were incubated with the compounds for 72 h at 27° C., then lysed by adding 50 μL of CellTiter-Glo (Promega) and placed on an orbital shaker for 5 min at room temperature. After lysis, the resulting ATP-bioluminescence was measured using the Analyst HT plate reader (Molecular Devices).

[2] = test system: L. donovani promastigotes (strain 1S/Cl2D); assay: as above; format: cell-based; settings: Leishmania donovani; read-out: Extracellular promastigote EC50
Method: as §1

[3] = test system: L. donovani intracellular amastigotes infecting THP-1 macrophages; assay: GSK intramacrophage L. donovani assay (LD AMMAC, inMac; Assay Conditions C); format: cell-based; settings: Leishmania donovani
Outline: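 L. donovani amastigotes within THP-1 macrophages; EC50 based on average intracellular amastigotes per infected cell (AMMAC). Infected-cell percentage (INFCELL) and host-cell number (MAC) also read, the latter as toxicity output.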

[4] = test system: L. donovani intracellular amastigotes in B10R cells; assay: UCSD L. donovani infection assay (Assay Conditions D); format: cell-based; settings: Leishmania donovani
Outline: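 B10R cells (300/well) infected with stationary-phase L. donovani WT promastigotes at 20 parasites/cell in DMEM high-glucose, 5% FBS, with compounds 72 h at 37° C., 5% CO2. Formaldehyde-fixed, DAPI-stained, imaged by high-content microscopy; 10-point 2-fold dilutions (screen at 10 μM) gave EC50 and host CC50.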

[5] = Host THP-1 cell cytotoxicity in the CDIPD high content screen; format: cell-based, human; settings: human
Outline: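 THP-1 cells differentiated with 0.1 μM PMA for 48 h, then infected with stationary-phase promastigotes (L. major LV39 or L. donovani 1S/Cl2D) at 1:15 parasite-cell ratio. Compounds applied for 72 h at 37° C. Cells formaldehyde-fixed, DAPI-stained, imaged to count amastigotes and host cells.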

[6] = growth inhibition of L. donovani intracellular amastigotes infecting THP-1 macrophages, read-out: LD AMMAC EC50

SMILES	EC50 [1] [µM]	EC50 [2] [nM]	IC50 ([3]; THP-1) [nM]	EC50 ([3]; THP-1, GSK lead selection criteria, read-out: Antiparasitic activity EC50, L. donovani amastigotes) [nM]	EC50 [3, 6] [nM]	IC50 [4] [nM]	EC50 ([4]; average of two biological replicates, read-out: L. donovani EC50 (UCSD assay)) [nM]	CC50 at 72 h [5] [µM]
COc1ccc(N2C(=O)c3[nH]nc(CC(C)C)c3C2c2ccc(F)cc2)cc1 (racemic) [Compound 1, 4-(4-fluorophenyl)-3-isobutyl-5-(4-methoxyphenyl)-4,5-dihydropyrrolo[3,4-c]pyrazol-6(1H)-one]	4.4	2000	2500	2500	2500	800	820	> 20
COc1ccc(N2C(=O)c3[nH]nc(CC(C)C)c3C2c2ccccc2)cc1 (centres unmarked) [Compound 2]	4.2	2400	3200	–	3200	1100	–	> 20
